Measured values published in patent publication US7608242B2, “Peptide-chelate conjugates” (GE Healthcare Limited, priority 2001, dated 2009).
Ends that are not written are not given here. Peptide text beside a SMILES is read from it. * marks the point of attachment. X1 = CCOC(C)SCC(=O)NC(CCCC(=O)*)C(=O)NCC(=O)NCC(=O)O

Columns and labels:
[1] = biological target: T1, ST receptor (rat intestinal membrane) (Rattus norvegicus, UniProt P23897); assay: Competition binding assay against [125I]ST1-17
T1 construct: in 96 well plates containing ca. 1 μg rat intestinal membrane; from tissue; host or cells: rat intestinal membrane
T1 sequence (P23897 23-1072): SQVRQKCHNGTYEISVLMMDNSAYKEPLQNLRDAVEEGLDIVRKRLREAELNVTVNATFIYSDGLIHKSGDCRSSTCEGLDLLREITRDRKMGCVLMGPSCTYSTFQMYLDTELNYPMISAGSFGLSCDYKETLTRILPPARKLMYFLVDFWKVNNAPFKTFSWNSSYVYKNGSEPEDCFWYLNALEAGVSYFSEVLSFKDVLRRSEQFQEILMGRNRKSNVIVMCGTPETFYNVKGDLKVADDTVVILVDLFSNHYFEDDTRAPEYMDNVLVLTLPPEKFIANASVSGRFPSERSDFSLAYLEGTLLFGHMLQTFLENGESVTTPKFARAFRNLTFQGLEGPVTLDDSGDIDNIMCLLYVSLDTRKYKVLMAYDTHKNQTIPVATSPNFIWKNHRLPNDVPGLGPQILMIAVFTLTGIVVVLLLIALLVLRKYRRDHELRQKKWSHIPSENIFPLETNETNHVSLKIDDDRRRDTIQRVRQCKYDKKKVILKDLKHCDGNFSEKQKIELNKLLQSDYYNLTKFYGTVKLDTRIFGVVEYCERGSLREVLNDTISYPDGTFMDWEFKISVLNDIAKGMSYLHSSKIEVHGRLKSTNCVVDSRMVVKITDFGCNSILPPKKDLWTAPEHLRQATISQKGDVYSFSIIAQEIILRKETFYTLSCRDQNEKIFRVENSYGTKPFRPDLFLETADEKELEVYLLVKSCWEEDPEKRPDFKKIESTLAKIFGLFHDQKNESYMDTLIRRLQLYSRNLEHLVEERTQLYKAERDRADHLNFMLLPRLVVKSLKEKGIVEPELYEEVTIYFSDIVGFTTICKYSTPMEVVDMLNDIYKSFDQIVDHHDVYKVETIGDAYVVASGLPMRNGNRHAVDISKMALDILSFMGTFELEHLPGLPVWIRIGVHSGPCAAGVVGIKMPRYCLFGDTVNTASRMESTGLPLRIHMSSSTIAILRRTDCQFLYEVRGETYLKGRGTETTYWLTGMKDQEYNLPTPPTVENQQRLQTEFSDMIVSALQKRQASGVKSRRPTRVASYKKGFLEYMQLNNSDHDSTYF
Description: Compounds were assessed for their potency by radioligand binding assay to determine inhibition constant (Ki) as a measure of potency of binding. Methods are described elsewhere, but briefly, [^125I]ST1-17 was competed with cold ST compounds (0.0001-50 μM) in 96 well plates containing ca. 1 μg rat intestinal membrane and incubated 1 hr, 37° C. Samples were filtered (GF/B filters, Whatman) to retrieve bound radiolabelled peptide and counted to determine % Bound/Free.
Potency of compounds was determined by inhibition constant (Ki) for their ability to compete with radioligand, [^125I]ST1-17.

[2] = tested on: T84 tumours subcutaneously; assay: Imaging in the subcutaneous tumour model (planar gamma camera); assay type: in vivo, mouse; settings: HPLC purified, 20 MBq per animal
Description: Tumour to liver ratios were; 1.1 at 15 minutes, 2 at 60 minutes and 4 at 120 minutes.
Tumours were grown as in Example 17. Animals were monitored for tumour growth for 8 to 10 weeks, until tumours were 0.5-1 cm in size. After this time, animals were injected with test article (0.1 ml, 20 MBq/ml or 200 MBq/ml) as an intravenous bolus via the tail vein. At various times p.i. animals were euthanased and whole body planar images acquired between 5 minutes and 24 hours p.i. using a gamma camera (Park Medical Isocam-1). Image acquisition times were typically 15-30 min or 150-250K counts (whole body, LEUHR collimator).

[3] = tested on: sub-cutaneous T84 tumours; assay: Uptake of labelled conjugate and negative control into CRC tumours; assay type: in vivo, mouse; settings: CD-1 nude mice bearing s.c. T84 tumours
T84 liver tumours = assay: Imaging in liver metastases model; assay type: in vivo, rat; settings: image of Example 21 (FIG. 8)
Description: The image is a whole body image with background counts removed and kidneys masked. Image tumour:liver ratio was typically 2.5.
The liver metastases model was used in both mice and rats. As for the subcutaneous tumour model except in establishing tumours, cells were injected via the spleen and allowed to transfer to the liver via the circulation. Two minutes after injection of cells, a splenectomy was performed. Animals were allowed to generate tumours over 6-8 weeks.
Tumours were grown in animal as described in Example 20. Animals were monitored for tumour growth for 8 to 10 weeks, until tumours were 0.5-1 cm in size. After this time, animals were injected with test article (0.1 ml, 200 MBq/ml) as an intravenous bolus via the tail vein. At various times p.i. animals were euthanased and whole body planar images acquired between 5 minutes and 24 hours p.i. using a gamma camera (Park Medical Isocam-1). Image acquisition times were typically 15-30 min or 150-250K counts (whole body, LEUHR collimator). […] The image has the kidneys masked to improve the resolution of the imaged metastases.

[4] = tested on: sub-cutaneous T84 tumours (T84 human colon carcinoma cells); assay: Biodistribution in a subcutaneous tumour model; assay type: in vivo, mouse; settings: 60 min p.i.
Description: The sub-cutaneous model was used as an appropriate initial in vivo screen. Briefly, mice (female nude CD-1, ca. 20 g; Charles River) were injected sub-cutaneously into the neck with T84 human colon carcinoma cells (0.1 ml, 1×10^8 cells/ml in medium) through a 23-gauge needle and allowed to develop tumours over 6-8 weeks.
At least three animals per test point were studied. Results are expressed as % injected dose per gram (% ID/g) of tissue.
Compounds were screened for their uptake into sub-cutaneous T84 tumours in the mouse (Table IV). This model allows assessment of the imageability of CA1-ST5-18 by allowing comparison between tumour and background tissue uptake.

[5] = biological target: T1, ST receptor (rat intestinal membrane); assay: Radioactive binding assay of HPLC purified radiolabelled compounds; settings: ca. 0.05 nM radiolabelled compound, 6 μg rat intestinal membrane, one hour
Description: To determine whether radiolabelling affected the binding of the compound, labelled compounds were tested for their ability to bind the receptor. Briefly HPLC purified radiolabelled compounds (ca. 0.05 nM) were incubated with 6 μg/150 μl final volume of rat intestinal membrane (one hour), in the presence and absence of competing peptide (50 μM ST5-18). Samples were filtered (GF/B filters, Whatman) to retrieve bound radiolabelled peptide and counted to determine % Bound/Free. Non-specific binding accounted for less than 1% in all cases.
In order to ensure that potency was maintained post-labelling, an assay measuring binding of labelled compounds was developed.

[6] = Mean Ki value (nM), competition with [125I]ST1-17, ca. 1 μg rat intestinal membrane, 1 hr, 37° C., means of triplicate wells

C/C(=N/O)C(C)(C)NCCN(CCNC(=O)CCC(=O)N[C@H]1CSSC[C@@H]2NC(=O)[C@@H]3CSSC[C@@H](C(=O)N[C@@H](Cc4ccc(O)cc4)C(=O)O)NC(=O)CNC(=O)[C@H](C)NC(=O)[C@H](CSSC[C@H](NC1=O)C(=O)N[C@@H](CCC(=O)O)C(=O)N[C@@H](CC(C)C)C(=O)N3)NC(=O)[C@H](C)NC(=O)[C@@H]1CCCN1C(=O)[C@H](CC(N)=O)NC2=O)CCNC(C)(C)/C(C)=N\O [CA1-ST5-18]
Ki [1, 6]: 2.8 nM
Ki ([1]; Mean Ki value (nM), mock-labelled (subjected to the radiolabelling protocol in the absence of radiometal)): 3.5 nM

CC(C)C[C@@H]1NC(=O)[C@H](CCC(=O)O)NC(=O)[C@@H]2CSSC[C@@H]3NC(=O)[C@H](C)NC(=O)[C@@H]4CCCN4C(=O)[C@H](CC(N)=O)NC(=O)[C@H](CSSC[C@H](N)C(=O)N2)NC(=O)[C@H](CSSC[C@@H](C(=O)N[C@@H](Cc2ccc(O)cc2)C(=O)O)NC(=O)CNC(=O)[C@H](C)NC3=O)NC1=O [ST5-18]
Ki ([1]; Ki, competition binding): 0.4 nM

CCOC(C)SCC(=O)NC(CCCC(=O)N[C@@H](C)C(=O)N[C@@H](C)C(=O)N[C@@H](CCC(=O)O)C(=O)N[C@@H](CC(C)C)C(=O)N[C@@H](C)C(=O)N[C@@H](C)C(=O)N[C@@H](CC(N)=O)C(=O)N1CCC[C@H]1C(=O)N[C@@H](C)C(=O)N[C@@H](C)C(=O)N[C@@H](C)C(=O)NCC(=O)N[C@@H](C)C(=O)N[C@@H](Cc1ccc(O)cc1)C(=O)O)C(=O)NCC(=O)NCC(=O)O (some centres unmarked) [CA3-ST5-18(cys-ala), reference compound] (X1-AAELAANPAAAGAY-OH)
Ki value (nM) ([1]; Table IV screening data): none
Ki ([1]; competition binding): no binding
Mean Ki value (nM) ([1]; competition with [125I]ST1-17, ca. 1 μg rat intestinal membrane, 1 hr, 37° C., means of triplicate wells): none

99mTc-labelled CA1-ST5-18: CA1-ST5-18 peptide-chelate conjugate radiolabelled with 99mTc (CCELCCNPACAGCY; disulfide (positions not given here); not fully specified (N-terminus); ends not checked; also: 99mTc label chelated by CA1, three disulfides, pairing not given here)
Tumour to liver ratio (image) ([2]; 15 minutes): 1.1
Tumour to liver ratio (image) ([2]; 60 minutes): 2
Tumour to liver ratio (image) ([2]; 120 minutes): 4
uptake into tumour (FIG. 5) [3]: good uptake
tumour:liver ratio based on ROI analysis (T84 liver tumours): 1.5-3.0
excreted / cleared via urine [4]: greater than 90%
binding, % of added radioactive material [5]: 6%

CCOC(C)SCC(=O)NC(CCCC(=O)N[C@H]1CSSC[C@@H]2NC(=O)[C@@H]3CSSC[C@@H](C(=O)N[C@@H](Cc4ccc(O)cc4)C(=O)O)NC(=O)CNC(=O)[C@H](C)NC(=O)[C@H](CSSC[C@H](NC1=O)C(=O)N[C@@H](CCC(=O)O)C(=O)N[C@@H](CC(C)C)C(=O)N3)NC(=O)[C@H](C)NC(=O)[C@@H]1CCCN1C(=O)[C@H](CC(N)=O)NC2=O)C(=O)NCC(=O)NCC(=O)O (some centres unmarked) [CA3-ST5-18]
Ki ([1]; Ki value (nM), Table IV screening data): 0.8 nM
Ki ([1]; Ki, competition binding): 0.8 nM
Ki [1, 6]: 0.8 nM

C/C(=N/O)C(C)(C)NCCN(CCNC(=O)CCC(=O)NCC(=O)NCC(=O)NCC(=O)NC(CCC(=O)O)C(=O)NC(CCC(=O)O)C(=O)NC(CCC(=O)O)C(=O)N[C@H]1CSSC[C@@H]2NC(=O)[C@@H]3CSSC[C@@H](C(=O)N[C@@H](Cc4ccc(O)cc4)C(=O)O)NC(=O)CNC(=O)[C@H](C)NC(=O)[C@H](CSSC[C@H](NC1=O)C(=O)N[C@@H](CCC(=O)O)C(=O)N[C@@H](CC(C)C)C(=O)N3)NC(=O)[C@H](C)NC(=O)[C@@H]1CCCN1C(=O)[C@H](CC(N)=O)NC2=O)CCNC(C)(C)/C(C)=N\O (some centres unmarked) [CA1-gly3-Dglu3-ST5-18]
Ki ([1]; Ki, competition binding): 1 nM
